Data published in patent US10202342B2, “Targeted delivery of imaging probes for in vivo cellular imaging” (University of Maryland, Baltimore, priority 2008, dated 2019).

Test system: cells
Assay: Intracellular retention of nitroxides (FIG. 7)
Type: cell-based
Excerpt: The exponential life time (τ) is related to the half-life (t½): t½=0.693τ.
It is evident that nitroxide has a significant increase in retention time and approximately a 4-fold improvement over nitroxide and a 12 fold increase over nitroxide.

Which results are given for `CC1(C)CC(CN(CC(=O)O)CC(=O)O)C(C)(C)N1[O]` (stereo not drawn) [nitroxide [3], (2,2,5,5-tetramethylpyrrolidin-1-oxyl-3-ylmethyl)amine-N,N-diacetic acid]?
intracellular retention life time (single-exponential fits), comparison in words (FIG. 7, nitroxides [1]-[3] compared): longest life time within the cells; intracellular retention time, improvement over nitroxide [2] (FIG. 7, retention within cells): ~4 fold; intracellular retention time, increase over nitroxide [1] (FIG. 7, retention within cells): ~12 fold
